{"source": "patent EP4810483A1", "about": "“6- AND 5-HETEROARYL DERIVATIVES AND USE THEREOF” (CMS Research & Development Pte. Ltd., priority 2023, dated 2025)", "key": {"[1]": {"molecular_target": "T1, hERG potassium channel (Homo sapiens, UniProt Q12809)", "T1 construct": "expressed in transfected cells; host or cells: CHO-hERG", "T1 sequence (Q12809 whole entry)": "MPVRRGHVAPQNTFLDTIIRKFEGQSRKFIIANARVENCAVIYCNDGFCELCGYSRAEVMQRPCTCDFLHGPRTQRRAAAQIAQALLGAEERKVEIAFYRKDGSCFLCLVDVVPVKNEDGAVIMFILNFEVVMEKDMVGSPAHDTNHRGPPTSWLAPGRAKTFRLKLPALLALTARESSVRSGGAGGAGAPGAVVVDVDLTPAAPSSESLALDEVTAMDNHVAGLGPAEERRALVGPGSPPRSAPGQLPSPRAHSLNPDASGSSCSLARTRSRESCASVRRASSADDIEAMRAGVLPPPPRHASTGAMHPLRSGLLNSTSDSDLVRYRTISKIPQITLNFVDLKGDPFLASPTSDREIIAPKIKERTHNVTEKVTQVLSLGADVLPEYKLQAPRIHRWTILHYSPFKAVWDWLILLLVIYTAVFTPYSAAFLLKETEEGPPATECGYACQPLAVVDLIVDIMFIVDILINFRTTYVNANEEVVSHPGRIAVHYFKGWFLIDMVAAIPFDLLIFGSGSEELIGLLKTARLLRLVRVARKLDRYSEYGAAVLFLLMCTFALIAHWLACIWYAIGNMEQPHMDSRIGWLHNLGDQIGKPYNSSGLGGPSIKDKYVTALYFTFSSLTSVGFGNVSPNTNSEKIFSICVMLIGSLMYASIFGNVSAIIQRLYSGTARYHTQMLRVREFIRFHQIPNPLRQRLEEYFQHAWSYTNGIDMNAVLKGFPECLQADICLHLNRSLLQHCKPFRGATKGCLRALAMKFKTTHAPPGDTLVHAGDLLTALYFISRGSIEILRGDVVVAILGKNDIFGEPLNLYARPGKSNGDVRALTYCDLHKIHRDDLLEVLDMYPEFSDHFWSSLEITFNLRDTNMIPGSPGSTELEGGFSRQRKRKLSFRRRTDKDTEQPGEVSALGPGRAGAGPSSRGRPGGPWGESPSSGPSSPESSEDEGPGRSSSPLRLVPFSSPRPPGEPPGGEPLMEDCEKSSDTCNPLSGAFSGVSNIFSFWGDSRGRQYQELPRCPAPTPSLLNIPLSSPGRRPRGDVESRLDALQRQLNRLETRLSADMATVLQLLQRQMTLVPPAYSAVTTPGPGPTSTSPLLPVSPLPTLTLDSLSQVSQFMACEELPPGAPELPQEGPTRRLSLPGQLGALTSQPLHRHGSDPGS", "test": "Automated patch clamp (Qpatch) assay for hERG potassium channel activity", "type": "cell-based", "method": "Assay Example 5: Automated patch clamp (Qpatch) assay for hERG potassium channel activity\nCHO-hERG cells were cultured in 175 cm^2 culture flasks. When the cell density reached 60-80%, the culture medium was removed, the cells were washed once with 7 mL of PBS, and then 3 mL of cell dissociation reagent was added for digestion. After complete digestion, 7 mL of culture medium was added to neutralize, and the cells were centrifuged. The supernatant was aspirated, and the cells were resuspended in 5 mL of culture medium to achieve a cell density of 2~5 × 10^6/mL.\nThe compound stock solution was diluted with DMSO. 10 µL of compound stock solution was added to 20 µL of DMSO solution, followed by 3-fold serial dilution to obtain 6 DMSO concentrations. 4 µL of the compound solution at each of the six DMSO concentrations was added to 396 µL of extracellular solution to achieve a 100-fold dilution to obtain six intermediate concentrations. Then, 80 µL of the compound solution at each of the six intermediate concentrations was added to 320 µL of extracellular solution to achieve a 5-fold dilution to the desired final test concentrations. […]\nThe electrophysiological process was recorded. […] This voltage stimulation was applied every 15 seconds, and recorded for 2 minutes. The extracellular solution was then given, and recorded for 5 minutes. […]\nThe assay data were analyzed using GraphPad Prism 5.0 software. […]"}, "[2]": {"molecular_target": "CYP2C19 (Homo sapiens, UniProt P33261)", "sequence (P33261 whole entry)": "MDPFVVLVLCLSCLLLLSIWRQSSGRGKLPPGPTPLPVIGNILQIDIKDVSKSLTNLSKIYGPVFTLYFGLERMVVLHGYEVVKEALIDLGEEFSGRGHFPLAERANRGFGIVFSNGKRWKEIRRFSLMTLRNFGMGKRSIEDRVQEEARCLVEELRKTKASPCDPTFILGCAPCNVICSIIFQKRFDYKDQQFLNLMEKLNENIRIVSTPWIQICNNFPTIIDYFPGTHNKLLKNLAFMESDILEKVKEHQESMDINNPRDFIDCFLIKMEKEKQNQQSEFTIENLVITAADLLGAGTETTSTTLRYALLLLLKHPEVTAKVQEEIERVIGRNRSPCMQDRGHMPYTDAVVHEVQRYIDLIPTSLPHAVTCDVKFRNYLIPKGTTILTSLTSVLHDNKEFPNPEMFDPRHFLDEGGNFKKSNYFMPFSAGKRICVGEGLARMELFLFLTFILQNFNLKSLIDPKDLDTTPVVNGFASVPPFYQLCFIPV", "test": "Drug-drug interaction evaluation: CYP inhibition in human liver microsomes (cocktail method)", "method": "(§1) The cocktail method using specific probe substrates for CYP1A2, CYP2C9, CYP2C19, CYP2D6 and CYP3A was used to evaluate the inhibitory effect of the compounds on the activity of human liver microsomal cytochrome P450 isoenzymes (CYP1A2, CYP2C9, CYP2C19, CYP2D6 and CYP3A).\n(§2) Human liver microsomes, probe substrates, positive control inhibitors, and reduced nicotinamide adenine dinucleotide phosphate (NADPH).\n(§3) To the corresponding wells of a reaction plate, 20 µL of substrate solution was added; to blank wells, 20 µL of potassium phosphate buffer was added.\n(§4) To the corresponding wells, 2 µL of test compound and positive control working solution were added; to inhibitor-free and blank wells, 2 µL of solvent was added.\n(§5) Human liver microsome working solution was prepared, and 158 µL of human liver microsome working solution was added to each well of the reaction plate.\n(§6) The plate was pre-incubated at 37.0°C for 10 minutes.\n(§7) To start the reaction, 20 µL of NADPH cofactor working solution was added to the reaction plate.\n(§8) After incubation in a 37.0°C water bath with mixing for 10 minutes, 400 µL of stop solution was added to terminate the reaction.\n(§9) The sample plate was centrifuged at 4000 rpm for 20 minutes.\n(§10) 200 µL of supernatant was taken and mixed with 100 µL of pure water as diluent, and the plate was shaken to mix well.\n(§11) Analysis was performed by liquid chromatography-tandem mass spectrometry (LC-MS/MS).\n(§12) Using the percentage of remaining activity as the ordinate and the test compound concentration as the abscissa, a non-linear regression analysis was performed with a three-parameter or four-parameter model using XL fit software to calculate the IC50 value.\n(§13) y = (max)/(1 + (((x)/(IC50)))^−hillslope) [formula]\n(§14) y = min + (max−min)/(1 + (((x)/(IC50)))^−hillslope) [formula]\n(§15) max = maximum enzyme activity; min = minimum enzyme activity; x = concentration of test compound or positive control inhibitor; y = enzyme activity at the corresponding concentration; hillslope = slope; IC50 = half-maximal inhibitory concentration. The four-parameter equation was used when the minimum enzyme activity was within ±10%; otherwise the three-parameter equation was used."}, "[3]": {"molecular_target": "CYP2C9 (Homo sapiens, UniProt P11712)", "sequence (P11712 whole entry)": "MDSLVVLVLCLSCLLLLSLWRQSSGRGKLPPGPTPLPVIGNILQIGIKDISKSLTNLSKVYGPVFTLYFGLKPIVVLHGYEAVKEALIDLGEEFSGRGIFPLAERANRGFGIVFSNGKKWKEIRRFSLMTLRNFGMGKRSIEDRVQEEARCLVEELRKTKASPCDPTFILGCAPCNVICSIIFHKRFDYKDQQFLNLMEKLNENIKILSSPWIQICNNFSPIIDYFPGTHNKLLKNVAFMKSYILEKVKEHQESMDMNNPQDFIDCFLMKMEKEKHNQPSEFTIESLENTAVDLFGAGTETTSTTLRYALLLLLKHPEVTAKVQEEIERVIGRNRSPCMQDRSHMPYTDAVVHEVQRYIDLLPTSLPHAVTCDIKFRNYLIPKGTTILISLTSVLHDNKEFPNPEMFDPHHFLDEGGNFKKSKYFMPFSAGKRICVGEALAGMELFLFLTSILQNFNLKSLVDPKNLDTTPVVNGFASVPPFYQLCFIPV", "test": "Drug-drug interaction evaluation: CYP inhibition in human liver microsomes (cocktail method)", "method": "as §1, §2, §3, §4, §5, §6, §7, §8, §9, §10, §11, §12, §13, §14, §15"}, "[4]": {"molecular_target": "T2, CYP1A2 (Homo sapiens, UniProt P05177)", "T2 sequence (P05177 1-516)": "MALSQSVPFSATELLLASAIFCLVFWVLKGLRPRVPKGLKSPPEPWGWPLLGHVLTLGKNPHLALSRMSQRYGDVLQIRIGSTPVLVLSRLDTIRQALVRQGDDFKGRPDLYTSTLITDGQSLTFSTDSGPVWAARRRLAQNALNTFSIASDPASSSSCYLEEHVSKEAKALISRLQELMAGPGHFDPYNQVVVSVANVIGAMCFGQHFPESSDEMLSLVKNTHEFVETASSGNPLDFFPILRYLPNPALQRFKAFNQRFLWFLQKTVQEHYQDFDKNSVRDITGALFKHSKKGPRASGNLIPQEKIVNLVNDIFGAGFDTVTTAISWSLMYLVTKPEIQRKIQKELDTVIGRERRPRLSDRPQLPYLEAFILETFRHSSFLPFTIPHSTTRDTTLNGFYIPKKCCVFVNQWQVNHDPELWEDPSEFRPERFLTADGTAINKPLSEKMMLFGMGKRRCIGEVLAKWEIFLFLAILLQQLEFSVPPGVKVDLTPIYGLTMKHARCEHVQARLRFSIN", "test": "Drug-drug interaction evaluation: CYP inhibition in human liver microsomes (cocktail method)", "method": "as §1, §2, §3, §4, §5, §6, §7, §8, §9, §10, §11, §12, §13, §14, §15"}, "[5]": {"molecular_target": "CYP2D6 (Homo sapiens, UniProt P10635)", "sequence (P10635 whole entry)": "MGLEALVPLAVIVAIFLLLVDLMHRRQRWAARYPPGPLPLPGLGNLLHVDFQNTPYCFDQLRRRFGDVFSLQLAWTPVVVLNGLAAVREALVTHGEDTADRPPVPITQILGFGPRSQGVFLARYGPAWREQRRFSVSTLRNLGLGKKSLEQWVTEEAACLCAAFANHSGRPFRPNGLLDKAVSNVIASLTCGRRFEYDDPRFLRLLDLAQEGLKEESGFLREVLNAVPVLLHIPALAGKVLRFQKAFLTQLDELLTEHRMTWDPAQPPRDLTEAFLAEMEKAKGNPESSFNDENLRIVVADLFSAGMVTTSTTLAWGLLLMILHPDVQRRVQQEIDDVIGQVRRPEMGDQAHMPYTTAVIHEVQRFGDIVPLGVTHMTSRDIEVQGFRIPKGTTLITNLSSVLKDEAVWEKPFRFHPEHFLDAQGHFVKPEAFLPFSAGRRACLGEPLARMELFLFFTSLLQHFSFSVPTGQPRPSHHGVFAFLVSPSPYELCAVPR", "test": "Drug-drug interaction evaluation: CYP inhibition in human liver microsomes (cocktail method)", "method": "as §1, §2, §3, §4, §5, §6, §7, §8, §9, §10, §11, §12, §13, §14, §15"}, "[6]": {"molecular_target": "CYP3A4 (Homo sapiens, UniProt P08684)", "sequence (P08684 2-503)": "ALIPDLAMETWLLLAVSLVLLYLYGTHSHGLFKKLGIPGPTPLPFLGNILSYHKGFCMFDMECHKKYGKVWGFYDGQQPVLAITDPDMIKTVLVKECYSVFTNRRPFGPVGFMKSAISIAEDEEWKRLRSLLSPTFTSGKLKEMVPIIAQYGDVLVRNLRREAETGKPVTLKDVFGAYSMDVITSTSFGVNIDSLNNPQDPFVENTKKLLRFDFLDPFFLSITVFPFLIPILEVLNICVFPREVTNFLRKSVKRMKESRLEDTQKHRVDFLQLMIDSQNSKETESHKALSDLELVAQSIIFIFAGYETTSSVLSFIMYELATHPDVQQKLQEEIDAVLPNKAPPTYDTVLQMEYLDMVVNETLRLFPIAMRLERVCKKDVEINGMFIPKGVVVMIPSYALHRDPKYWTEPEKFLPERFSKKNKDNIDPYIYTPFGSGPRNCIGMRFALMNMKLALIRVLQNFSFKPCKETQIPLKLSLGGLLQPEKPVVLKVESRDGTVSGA", "test": "Drug-drug interaction evaluation: CYP inhibition in human liver microsomes (cocktail method)", "method": "as §1, §2, §3, §4, §5, §6, §7, §8, §9, §10, §11, §12, §13, §14, §15"}}, "note": "Read-outs that look alike come from different tables or passages of the source.", "data": [{"smiles": "Cc1c(NC(=O)CC(C)(C)C)n(C)c2cc(Nc3ccc(F)cc3)ccc12", "note": "[Compound 1]", "values": [{"measurement": "IC50", "setting": "[1]; CHO-hERG cells, Qpatch, highest test concentration 40.00 µM, read-out: IC50", "result": "> 40", "unit": "µM"}]}, {"smiles": "Cc1nc(Nc2ccc3c(C)c(NC(=O)CC(C)(C)C)n(C)c3c2)ccc1F", "note": "[Compound 41]", "values": [{"measurement": "IC50", "setting": "[2]", "result": "> 50", "unit": "µM"}, {"measurement": "IC50", "setting": "[3]", "result": 11, "unit": "µM"}, {"measurement": "IC50", "setting": "[4]", "result": 11, "unit": "µM"}, {"measurement": "IC50", "setting": "[5]", "result": "> 50", "unit": "µM"}, {"measurement": "IC50", "setting": "[6]", "result": "> 50", "unit": "µM"}]}, {"smiles": "Cc1c(NC(=O)CC(C)(C)C)n(C)c2cc(Nc3ccc(C(F)(F)F)cc3)ccc12", "note": "[Compound 5]", "values": [{"measurement": "IC50", "setting": "[1]", "result": "> 40", "unit": "µM"}, {"measurement": "IC50", "setting": "[6]", "result": "> 50", "unit": "µM"}]}]}
